Numbered stars: 1 amine (or outer) side, 2 acyl side, 3 side chain; on linkers, the order of the positions; unused ones are H or OH. Bridge positions count the residues as written; N and C are the ends. Square brackets hold non-standard residues; d marks the D form. Peptide text beside a SMILES is read from it. Phe(4-(4-Ac-piperazinyl)) = CC(=O)N1CCN(c2ccc(C[C@H](N)C(=O)O)cc2)CC1; Trp(7-aza,1-CH2COOH) = N[C@@H](Cc1cn(CC(=O)O)c2ncccc12)C(=O)O; Trp(βS-Me,7-OMe) = COc1cccc2c([C@H](C)[C@H](N)C(=O)O)c[nH]c12; Trp(1-CH2COOH) = N[C@@H](Cc1cn(CC(=O)O)c2ccccc12)C(=O)O; Trp(βS-Me) = C[C@@H](c1c[nH]c2ccccc12)[C@H](N)C(=O)O; dPro(trans-4-NMe2) = CN(C)[C@@H]1CN[C@@H](C(=O)O)C1; Trp(7-CN) = N#Cc1cccc2c(C[C@H](N)C(=O)O)c[nH]c12; Trp(7-Cl) = N[C@@H](Cc1c[nH]c2c(Cl)cccc12)C(=O)O; Phe(4-CONH2) = NC(=O)c1ccc(C[C@H](N)C(=O)O)cc1; Phe(4-COOH) = N[C@@H](Cc1ccc(C(=O)O)cc1)C(=O)O; 4Pal(3S-Me) = C[C@@H](c1ccncc1)[C@H](N)C(=O)O; X66 = O=C([C@@H](N[*:1])c1cccc(O)c1)[*:2]; Lys(Me3) = C[N+](C)(C)CCCC[C@H](N)C(=O)O; Pip(5R-OH) = O=C(O)[C@@H]1CC[C@@H](O)CN1; X1 = O=C([C@@H]1CC[C@H](N[*:1])C1)[*:2]; Pip(4-aza) = O=C(O)[C@@H]1CNCCN1; 4Pal = N[C@@H](Cc1ccncc1)C(=O)O; NMeE = CN[C@@H](CCC(=O)O)C(=O)O; dHyp = O=C(O)[C@H]1C[C@H](O)CN1; Ahp(2) = CCCCC[C@H](N)C(=O)O; Pip = O=C(O)[C@@H]1CCCCN1; αMeS = C[C@](N)(CO)C(=O)O; NMeA = CN[C@@H](C)C(=O)O; Nle = CCCC[C@H](N)C(=O)O; Sar = CNCC(=O)O
Molecular target: T1, TNFα-induced NF-κB signal transduction pathway (TNFR1 signaling) in THP-1 cells (Homo sapiens, UniProt P19438)
T1 sequence (P19438 30-455): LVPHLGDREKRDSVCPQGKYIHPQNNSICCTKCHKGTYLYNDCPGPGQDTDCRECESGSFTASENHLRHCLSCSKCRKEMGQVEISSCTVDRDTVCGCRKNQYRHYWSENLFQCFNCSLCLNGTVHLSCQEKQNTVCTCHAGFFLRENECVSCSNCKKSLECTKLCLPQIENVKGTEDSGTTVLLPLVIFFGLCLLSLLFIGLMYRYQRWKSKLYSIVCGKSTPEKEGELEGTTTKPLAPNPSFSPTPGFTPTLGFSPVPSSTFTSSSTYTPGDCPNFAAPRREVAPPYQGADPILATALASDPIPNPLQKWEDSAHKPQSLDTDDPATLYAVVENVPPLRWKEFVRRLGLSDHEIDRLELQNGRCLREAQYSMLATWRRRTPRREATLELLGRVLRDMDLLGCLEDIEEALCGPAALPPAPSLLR
Assay: THP-1 Lucia NF-κB reporter cell assay, inhibition of TNFα-induced NF-κB signaling
Format: cell-based
Details: THP-1 NF-κB Lucia reporter cells, 10 ng/mL TNFα, 16-18 h, secreted luciferase; read-out: THP-1 IC50
Description: C. Procedure for THP-1 Lucia NF-κB cells
The inhibition of TNFα-induced NF-κB signal transduction pathways was evaluated in THP-1 cells. THP-1 cells harboring NF-κB-inducible Lucia™ reporter gene (InvivoGen, cat. #thp1-nfkb) designed for monitoring NF-κB signal transduction pathway was employed to assess the inhibitory effect macrocyclic peptides on TNFR1 signaling. The cells were cultured in media containing RPMI 1640, 2 mM L-glutamine, 25 mM HEPES, 10% heat-inactivated fetal bovine serum with appropriate selection antibiotics. Assays were performed in media that was devoid of selection antibiotics. For profiling, 125 nL of peptides in DMSO (10 mM) were dispensed into Falcon® 384-well Optilux white/clear flat bottom TC-treated microtest microplate (Corning, cat. #353963) using Echo® 555. […] A suspension of 1 million cells/mL was dispensed at 20 μL/well in a 384-well plate to a density of 20,000 cells/well and pre-incubated with peptides at 37° C. for 1 h. Subsequently, 5 μL of TNF containing media (recombinant human TNFα; R&D Systems USA, cat. #210-TA-005/CF) or TNF-free media (for controls) was added to the wells. The final concentration of TNFα in the assay in 10 ng/mL. After o.n. incubation at 37° C. (16-18 h), 5 μL of supernatant was aspirated and transferred to a 384-well microplate (PerkinElmer, cat. #6007680) for measurement of secreted luciferase activity with 25 μL of QUANTI-Luc™ luminescence assay reagent (InvivoGen, cat. #rep-qlc1) in each well. The luminescence was measured in EnVision® Multimode Plate Reader (PerkinElmer). Dose response curves were analyzed using a 4-parameter logistic model to calculate IC50 values, reported in Table 2, using TIBCO® Spotfire® software employing appropriate Minimum and Maximum controls.

SMILES	IC50 [nM]
CCCC[C@@H]1NC(=O)[C@@H]2CC[C@@H](C2)NC(=O)[C@H]([C@@H](C)c2c[nH]c3c(OC)cccc23)NC(=O)CN(C)C(=O)[C@H](Cc2ccc(C(N)=O)cc2)NC(=O)[C@H](Cc2ccc(C(N)=O)cc2)NC(=O)[C@](C)(CO)NC(=O)[C@H](Cc2c[nH]c3c(C#N)cccc23)NC(=O)[C@H](Cc2ccc(C(=O)O)cc2)NC(=O)[C@H](CC(N)=O)NC(=O)[C@H]2C[C@H](N(C)C)CN2C(=O)[C@H](Cc2cn(CC(=O)O)c3ncccc23)NC(=O)[C@@H]2CC[C@@H](O)CN2C(=O)[C@H](Cc2ccncc2)NC1=O [SEQ ID NO. 32] (cyclo([4Pal][Pip(5R-OH)][Trp(7-aza,1-CH2COOH)][dPro(trans-4-NMe2)]N[Phe(4-COOH)][Trp(7-CN)][αMeS][Phe(4-CONH2)][Phe(4-CONH2)][Sar][Trp(βS-Me,7-OMe)][X1][Nle]))	0.6
C[C@@H](c1c[nH]c2ccccc12)[C@@H]1NC(=O)[C@H](CO)NC(=O)[C@H](Cc2ccc(O)cc2)NC(=O)[C@H](CCCCN)NC(=O)CSC[C@@H](C(N)=O)NC(=O)[C@H](Cc2c[nH]c3ccccc23)NC(=O)CN(C)C(=O)[C@H](Cc2ccc(O)cc2)NC(=O)[C@H](Cc2ccc(C(=O)O)cc2)NC(=O)[C@](C)(CO)NC(=O)[C@H](Cc2c[nH]c3ccccc23)NC(=O)[C@H](Cc2ccncc2)NC(=O)[C@H](CC(N)=O)NC(=O)[C@H](C)N(C)C1=O [SEQ ID NO. 36] ({CH2CO}-KYS[Trp(βS-Me)][NMeA]N[4Pal]W[αMeS][Phe(4-COOH)]Y[Sar]WC-NH2; thioether N-14)	2.2
COc1cccc2c([C@H](C)[C@@H]3NC(=O)CN(C)C(=O)[C@H](Cc4ccc(O)cc4)NC(=O)[C@H](Cc4ccc(C(=O)O)cc4)NC(=O)[C@](C)(CO)NC(=O)[C@H](Cc4c[nH]c5c(Cl)cccc45)NC(=O)[C@H](Cc4ccncc4)NC(=O)[C@H](CC(N)=O)NC(=O)[C@H](CCC(=O)O)N(C)C(=O)[C@H](Cc4c[nH]c5ccccc45)NC(=O)[C@@H]4CCCCN4C(=O)[C@H](Cc4ccncc4)NC(=O)[C@H](CCCC[N+](C)(C)C)NC(=O)[C@@H]4CC[C@@H](C4)NC3=O)c[nH]c12 [SEQ ID NO. 47] (cyclo([4Pal][Pip]W[NMeE]N[4Pal][Trp(7-Cl)][αMeS][Phe(4-COOH)]Y[Sar][Trp(βS-Me,7-OMe)][X1][Lys(Me3)]))	1.9
CCCC[C@@H]1NC(=O)CSC[C@@H](C(N)=O)NC(=O)[C@H]([C@@H](C)c2c[nH]c3c(OC)cccc23)NC(=O)CN(C)C(=O)[C@H](c2cccc(O)c2)NC(=O)[C@H](Cc2ccc(C(N)=O)cc2)NC(=O)[C@](C)(CO)NC(=O)[C@H](Cc2c[nH]c3c(Cl)cccc23)NC(=O)[C@H](Cc2ccc(C(=O)O)cc2)NC(=O)[C@H](CC(N)=O)NC(=O)[C@H](CCC(=O)O)N(C)C(=O)[C@H](Cc2cn(CC(=O)O)c3ccccc23)NC(=O)[C@@H]2CNCCN2C(=O)[C@H](Cc2ccncc2)NC1=O [SEQ ID NO. 52] ({CH2CO}-[Nle][4Pal][Pip(4-aza)][Trp(1-CH2COOH)][NMeE]N[Phe(4-COOH)][Trp(7-Cl)][αMeS][Phe(4-CONH2)][X66][Sar][Trp(βS-Me,7-OMe)]C-NH2; thioether N-14)	3.9
CCCCC[C@@H]1NC(=O)[C@@H]2CC[C@@H](C2)NC(=O)[C@H]([C@@H](C)c2c[nH]c3c(OC)cccc23)NC(=O)CN(C)C(=O)[C@H](Cc2ccc(C(N)=O)cc2)NC(=O)[C@H](Cc2ccc(C(N)=O)cc2)NC(=O)[C@](C)(CO)NC(=O)[C@H](Cc2c[nH]c3c(C#N)cccc23)NC(=O)[C@H](Cc2ccc(C(=O)O)cc2)NC(=O)[C@H](CC(N)=O)NC(=O)[C@H]2C[C@H](O)CN2C(=O)[C@H](Cc2c[nH]c3ccccc23)NC(=O)[C@H](CC(=O)O)NC(=O)[C@H]([C@@H](C)c2ccncc2)NC1=O [SEQ ID NO. 55] (cyclo([Ahp(2)][4Pal(3S-Me)]DW[dHyp]N[Phe(4-COOH)][Trp(7-CN)][αMeS][Phe(4-CONH2)][Phe(4-CONH2)][Sar][Trp(βS-Me,7-OMe)][X1]))	1.3
CCCC[C@@H]1NC(=O)[C@@H]2CC[C@@H](C2)NC(=O)[C@H]([C@@H](C)c2c[nH]c3c(OC)cccc23)NC(=O)CN(C)C(=O)[C@H](Cc2ccc(N3CCN(C(C)=O)CC3)cc2)NC(=O)[C@H](Cc2ccc(C(=O)O)cc2)NC(=O)[C@](C)(CO)NC(=O)[C@H](Cc2c[nH]c3c(Cl)cccc23)NC(=O)[C@H](Cc2ccncc2)NC(=O)[C@H](CC(N)=O)NC(=O)[C@H](CCC(=O)O)N(C)C(=O)[C@H](Cc2c[nH]c3ccccc23)NC(=O)[C@@H]2CNCCN2C(=O)[C@H](Cc2ccncc2)NC1=O [SEQ ID NO. 63] (cyclo([4Pal][Trp(7-Cl)][αMeS][Phe(4-COOH)][Phe(4-(4-Ac-piperazinyl))][Sar][Trp(βS-Me,7-OMe)][X1][Nle][4Pal][Pip(4-aza)]W[NMeE]N))	1.2
